# Laboratory results published in ChEMBL document CHEMBL3124829, “Discovery of SCH 900188: A Potent Hepatitis C Virus NS5B Polymerase Inhibitor Prodrug As a Development Candidate” (ACS Med Chem Lett, 2014).
# pEC50, pIC50: −log10 of the molar value. Active and inactive are the calls of the source. The rule behind the calls is not given here.
# Columns and labels:
# Rattus norvegicus [1] = experiment: Half life in rat assessed as 4-Fluoro-6-((7-fluoro-4-oxo-3,4-dihydroquinazolin-6-yl)methyl)-8-(2-oxo-1,2-dihydropyridin-3-yl)-6H-furo[2,3-e]indole-7-carboxylic acid at 3 mg/kg, iv; assay type: ADME, organism-based; design: dose 3 mg/kg, route intravenous; settings: in vivo
# [2] = test system: RNA-directed RNA polymerase (Hepacivirus hominis), O39930 [G554D]; experiment: Inhibition of HCV NS5B RdRp G554D mutant active site
# Rattus norvegicus [3] = species on record: Rattus norvegicus; experiment: Ratio of drug level from liver to plasma in rat assessed as 4-Fluoro-6-((7-fluoro-4-oxo-3,4-dihydroquinazolin-6-yl)methyl)-8-(2-oxo-1,2-dihydropyridin-3-yl)-6H-furo[2,3-e]indole-7-carboxylic acid after 6 hrs; settings: other tissue
# Rhesus monkey [4] = experiment: AUC (0 to 24 hrs) in monkey assessed as 4-Fluoro-6-((7-fluoro-4-oxo-3,4-dihydroquinazolin-6-yl)methyl)-8-(2-oxo-1,2-dihydropyridin-3-yl)-6H-furo[2,3-e]indole-7-carboxylic acid at 3 mg/kg, po; assay type: ADME, organism-based, Macaca mulatta, Plasma; design: time < 24 hr, dose 3 mg/kg, route oral; settings: in vivo
# [5] = Inhibition of HCV genotype 1b C-terminal polyhistidine-tagged NS5B Cdelta21 RdRp expressed in Escherichia coli using DCoH75 as template assessed as incorporation of [33P]-CTP in polynucleotide sequence after 2 hrs by scintillation counting analysis; design: species or system Hepatitis C virus subtype 1b
# Salmonella typhimurium = experiment: Mutagenic activity in Salmonella typhimurium by mini Ames test; assay type: toxicity, organism-based; settings: salmonella enterica subsp. enterica serovar typhimurium
# [6] = Mutagenic activity in micronucleus (unknown origin); assay type: ADME
# Canis familiaris [7] = experiment: AUC (0 to 24 hrs) in dog assessed as 4-Fluoro-6-((7-fluoro-4-oxo-3,4-dihydroquinazolin-6-yl)methyl)-8-(2-oxo-1,2-dihydropyridin-3-yl)-6H-furo[2,3-e]indole-7-carboxylic acid at 3 mg/kg, po; assay type: ADME, organism-based, Canis lupus familiaris, Plasma; design: time < 24 hr, dose 3 mg/kg, route oral; settings: in vivo
# Canis familiaris [8] = experiment: Oral bioavailability in dog assessed as 4-Fluoro-6-((7-fluoro-4-oxo-3,4-dihydroquinazolin-6-yl)methyl)-8-(2-oxo-1,2-dihydropyridin-3-yl)-6H-furo[2,3-e]indole-7-carboxylic acid; assay type: ADME, organism-based, Canis lupus familiaris; settings: in vivo
# Hepatitis C virus = experiment: Antiviral activity against HCV infected in human hepatoma cells assessed as inhibition of viral RNA replication after 3 days by real time PCR analysis; assay type: functional, organism-based, Hepacivirus hominis; settings: 72 h
# [9] = Solubility of the compound at pH 3; assay type: physicochemical; settings: buffer
# Rattus norvegicus [10] = species on record: Rattus norvegicus; experiment: Cmax in rat assessed as 4-Fluoro-6-((7-fluoro-4-oxo-3,4-dihydroquinazolin-6-yl)methyl)-8-(2-oxo-1,2-dihydropyridin-3-yl)-6H-furo[2,3-e]indole-7-carboxylic acid; assay type: ADME, organism-based; settings: in vivo
# [11] = test system: RNA-directed RNA polymerase (Hepacivirus hominis), O39930 [C316Y]; experiment: Inhibition of HCV NS5B RdRp C316Y mutant active site
# Canis familiaris [12] = species on record: Canis familiaris; experiment: Cmax in dog assessed as 4-Fluoro-6-((7-fluoro-4-oxo-3,4-dihydroquinazolin-6-yl)methyl)-8-(2-oxo-1,2-dihydropyridin-3-yl)-6H-furo[2,3-e]indole-7-carboxylic acid; assay type: ADME, organism-based, Canis lupus familiaris; settings: in vivo
# Rattus norvegicus [13] = experiment: AUC (0 to 24 hrs) in rat assessed as 4-Fluoro-6-((7-fluoro-4-oxo-3,4-dihydroquinazolin-6-yl)methyl)-8-(2-oxo-1,2-dihydropyridin-3-yl)-6H-furo[2,3-e]indole-7-carboxylic acid at 10 mg/kg, po; assay type: ADME, organism-based, Plasma; design: time < 24 hr, dose 10 mg/kg, route oral; settings: in vivo
# Canis familiaris [14] = experiment: Half life in dog assessed as 4-Fluoro-6-((7-fluoro-4-oxo-3,4-dihydroquinazolin-6-yl)methyl)-8-(2-oxo-1,2-dihydropyridin-3-yl)-6H-furo[2,3-e]indole-7-carboxylic acid at 1 mg/kg, iv; assay type: ADME, organism-based, Canis lupus familiaris; design: dose 1 mg/kg, route intravenous; settings: in vivo
# Rhesus monkey [15] = experiment: Oral bioavailability in monkey assessed as 4-Fluoro-6-((7-fluoro-4-oxo-3,4-dihydroquinazolin-6-yl)methyl)-8-(2-oxo-1,2-dihydropyridin-3-yl)-6H-furo[2,3-e]indole-7-carboxylic acid; assay type: ADME, organism-based, Macaca mulatta; settings: in vivo
# Rhesus monkey [16] = experiment: Half life in monkey assessed as 4-Fluoro-6-((7-fluoro-4-oxo-3,4-dihydroquinazolin-6-yl)methyl)-8-(2-oxo-1,2-dihydropyridin-3-yl)-6H-furo[2,3-e]indole-7-carboxylic acid at 1 mg/kg, iv; assay type: ADME, organism-based, Macaca mulatta; design: dose 1 mg/kg, route intravenous; settings: in vivo
# Rhesus monkey [17] = experiment: Cmax in monkey assessed as 4-Fluoro-6-((7-fluoro-4-oxo-3,4-dihydroquinazolin-6-yl)methyl)-8-(2-oxo-1,2-dihydropyridin-3-yl)-6H-furo[2,3-e]indole-7-carboxylic acid; assay type: ADME, organism-based, Macaca mulatta; settings: in vivo
# [18] = test system: RNA-directed RNA polymerase (Hepacivirus hominis), O39930 [M414T]; experiment: Inhibition of HCV NS5B RdRp M414T mutant palm allosteric site
# Rattus norvegicus [19] = experiment: Oral bioavailability in rat assessed as 4-Fluoro-6-((7-fluoro-4-oxo-3,4-dihydroquinazolin-6-yl)methyl)-8-(2-oxo-1,2-dihydropyridin-3-yl)-6H-furo[2,3-e]indole-7-carboxylic acid; assay type: ADME, organism-based; settings: in vivo
# [20] = test system: RNA-directed RNA polymerase (Hepacivirus hominis), O39930 [G554D]; experiment: Inhibition of HCV NS5B RdRp G554D mutant palm allosteric site
# [21] = test system: RNA-directed RNA polymerase (Hepacivirus hominis), O39930 [M414T]; experiment: Inhibition of HCV NS5B RdRp M414T mutant active site
# [22] = test system: RNA-directed RNA polymerase (Hepacivirus hominis), O39930 [C316Y]; experiment: Inhibition of HCV NS5B RdRp C316Y mutant palm allosteric site
# RNA-directed RNA polymerase (Hepacivirus hominis), O39930 [C316Y], sequence (O39930 entry or part of it C316Y): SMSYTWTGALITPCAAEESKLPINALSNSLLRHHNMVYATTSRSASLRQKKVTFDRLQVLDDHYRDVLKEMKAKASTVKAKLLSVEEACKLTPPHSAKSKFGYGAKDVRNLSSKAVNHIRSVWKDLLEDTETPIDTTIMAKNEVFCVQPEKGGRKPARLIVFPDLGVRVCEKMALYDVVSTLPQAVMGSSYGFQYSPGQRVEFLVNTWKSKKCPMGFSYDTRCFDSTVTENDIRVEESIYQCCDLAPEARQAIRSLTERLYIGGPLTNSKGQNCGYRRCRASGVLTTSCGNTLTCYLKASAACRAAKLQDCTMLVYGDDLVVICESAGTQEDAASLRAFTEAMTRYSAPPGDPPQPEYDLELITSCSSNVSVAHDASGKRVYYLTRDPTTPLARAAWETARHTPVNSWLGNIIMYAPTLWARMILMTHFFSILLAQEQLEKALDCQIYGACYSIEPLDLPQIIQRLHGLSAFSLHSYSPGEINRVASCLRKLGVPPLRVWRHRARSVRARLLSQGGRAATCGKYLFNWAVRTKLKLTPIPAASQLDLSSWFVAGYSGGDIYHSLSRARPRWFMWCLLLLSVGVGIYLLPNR
# RNA-directed RNA polymerase (Hepacivirus hominis), O39930 [G554D], sequence (O39930 entry or part of it G554D): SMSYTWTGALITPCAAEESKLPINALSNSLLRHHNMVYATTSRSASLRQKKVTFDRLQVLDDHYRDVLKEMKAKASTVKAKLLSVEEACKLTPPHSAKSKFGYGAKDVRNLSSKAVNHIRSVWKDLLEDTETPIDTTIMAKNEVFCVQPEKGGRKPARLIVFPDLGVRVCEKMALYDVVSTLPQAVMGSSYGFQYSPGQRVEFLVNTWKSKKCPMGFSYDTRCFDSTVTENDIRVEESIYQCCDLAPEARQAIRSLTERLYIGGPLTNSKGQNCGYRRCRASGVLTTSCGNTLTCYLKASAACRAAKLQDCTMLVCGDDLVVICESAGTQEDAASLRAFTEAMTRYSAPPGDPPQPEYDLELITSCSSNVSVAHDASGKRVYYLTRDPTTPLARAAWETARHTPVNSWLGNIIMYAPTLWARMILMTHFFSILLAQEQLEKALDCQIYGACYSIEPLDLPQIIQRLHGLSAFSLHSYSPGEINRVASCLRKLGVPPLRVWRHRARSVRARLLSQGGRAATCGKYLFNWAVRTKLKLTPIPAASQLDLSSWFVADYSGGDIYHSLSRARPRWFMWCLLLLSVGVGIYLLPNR
# RNA-directed RNA polymerase (Hepacivirus hominis), O39930 [M414T], sequence (O39930 entry or part of it M414T): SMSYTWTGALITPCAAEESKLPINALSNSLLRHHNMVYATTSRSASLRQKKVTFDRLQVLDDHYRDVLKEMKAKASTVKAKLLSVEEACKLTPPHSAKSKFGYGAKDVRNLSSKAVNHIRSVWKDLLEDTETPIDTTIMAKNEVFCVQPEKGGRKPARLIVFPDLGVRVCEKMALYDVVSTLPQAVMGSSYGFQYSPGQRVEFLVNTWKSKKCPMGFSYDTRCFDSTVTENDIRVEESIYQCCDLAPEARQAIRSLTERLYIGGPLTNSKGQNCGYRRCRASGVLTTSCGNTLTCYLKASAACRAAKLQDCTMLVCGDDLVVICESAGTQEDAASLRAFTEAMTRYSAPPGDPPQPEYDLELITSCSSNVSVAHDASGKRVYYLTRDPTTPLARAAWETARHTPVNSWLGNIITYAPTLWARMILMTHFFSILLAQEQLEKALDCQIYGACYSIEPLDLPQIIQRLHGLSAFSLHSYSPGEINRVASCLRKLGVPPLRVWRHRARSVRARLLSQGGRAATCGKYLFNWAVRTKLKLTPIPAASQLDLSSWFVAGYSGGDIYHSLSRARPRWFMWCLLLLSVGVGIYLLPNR
compound,measurement,setting,value
CN(C)CCOC(=O)c1c(-c2ccc[nH]c2=O)c2c3occc3c(F)cc2n1Cc1cc2c(=O)[nH]cnc2cc1F.Cl,t1/2,Rattus norvegicus [1],11 h
same,inhibition,[2],Active
same,Ratio,Rattus norvegicus [3],0.5
same,AUC,Rhesus monkey [4],144 µM·h
same,pIC50,[5],6.82
same,Activity,Salmonella typhimurium,Non-toxic
same,Activity,[6],Non-toxic
same,AUC,Canis familiaris [7],2.4 µM·h
same,F,Canis familiaris [8],29%
same,pEC50,Hepatitis C virus,8.30
same,solubility,[9],900 µM
same,Cmax,Rattus norvegicus [10],2100 nM
same,inhibition,[11],Active
same,Cmax,Canis familiaris [12],800 nM
same,AUC,Rattus norvegicus [13],22 µM·h
same,t1/2,Canis familiaris [14],4 h
same,F,Rhesus monkey [15],63%
same,t1/2,Rhesus monkey [16],22 h
same,Cmax,Rhesus monkey [17],4100 nM
same,inhibition,[18],inactive
same,F,Rattus norvegicus [19],2%
same,inhibition,[20],inactive
same,inhibition,[21],Active
same,inhibition,[22],inactive
